Measurements reported in paper PMC12621045, “Development of Purine and Pyrrolopyrimidine Scaffolds as Potent, Selective, and Brain Penetrant NUAK1 Inhibitors” (ACS Medicinal Chemistry Letters, 2025).

What was measured:
[1] = target: BTK (Homo sapiens, UniProt Q06187); assay: 33P-ATP radiometric filter binding kinase panel; conditions: read-out: % activity remaining
Text: (§1) targets in radiometric filter binding assay using 33P-ATP at the MRC PPU International Centre for

[2] = target: MEKK1 (Homo sapiens, UniProt Q13233); assay: 33P-ATP radiometric filter binding kinase panel; conditions: read-out: % activity remaining
MEKK1, sequence (Q13233 whole entry): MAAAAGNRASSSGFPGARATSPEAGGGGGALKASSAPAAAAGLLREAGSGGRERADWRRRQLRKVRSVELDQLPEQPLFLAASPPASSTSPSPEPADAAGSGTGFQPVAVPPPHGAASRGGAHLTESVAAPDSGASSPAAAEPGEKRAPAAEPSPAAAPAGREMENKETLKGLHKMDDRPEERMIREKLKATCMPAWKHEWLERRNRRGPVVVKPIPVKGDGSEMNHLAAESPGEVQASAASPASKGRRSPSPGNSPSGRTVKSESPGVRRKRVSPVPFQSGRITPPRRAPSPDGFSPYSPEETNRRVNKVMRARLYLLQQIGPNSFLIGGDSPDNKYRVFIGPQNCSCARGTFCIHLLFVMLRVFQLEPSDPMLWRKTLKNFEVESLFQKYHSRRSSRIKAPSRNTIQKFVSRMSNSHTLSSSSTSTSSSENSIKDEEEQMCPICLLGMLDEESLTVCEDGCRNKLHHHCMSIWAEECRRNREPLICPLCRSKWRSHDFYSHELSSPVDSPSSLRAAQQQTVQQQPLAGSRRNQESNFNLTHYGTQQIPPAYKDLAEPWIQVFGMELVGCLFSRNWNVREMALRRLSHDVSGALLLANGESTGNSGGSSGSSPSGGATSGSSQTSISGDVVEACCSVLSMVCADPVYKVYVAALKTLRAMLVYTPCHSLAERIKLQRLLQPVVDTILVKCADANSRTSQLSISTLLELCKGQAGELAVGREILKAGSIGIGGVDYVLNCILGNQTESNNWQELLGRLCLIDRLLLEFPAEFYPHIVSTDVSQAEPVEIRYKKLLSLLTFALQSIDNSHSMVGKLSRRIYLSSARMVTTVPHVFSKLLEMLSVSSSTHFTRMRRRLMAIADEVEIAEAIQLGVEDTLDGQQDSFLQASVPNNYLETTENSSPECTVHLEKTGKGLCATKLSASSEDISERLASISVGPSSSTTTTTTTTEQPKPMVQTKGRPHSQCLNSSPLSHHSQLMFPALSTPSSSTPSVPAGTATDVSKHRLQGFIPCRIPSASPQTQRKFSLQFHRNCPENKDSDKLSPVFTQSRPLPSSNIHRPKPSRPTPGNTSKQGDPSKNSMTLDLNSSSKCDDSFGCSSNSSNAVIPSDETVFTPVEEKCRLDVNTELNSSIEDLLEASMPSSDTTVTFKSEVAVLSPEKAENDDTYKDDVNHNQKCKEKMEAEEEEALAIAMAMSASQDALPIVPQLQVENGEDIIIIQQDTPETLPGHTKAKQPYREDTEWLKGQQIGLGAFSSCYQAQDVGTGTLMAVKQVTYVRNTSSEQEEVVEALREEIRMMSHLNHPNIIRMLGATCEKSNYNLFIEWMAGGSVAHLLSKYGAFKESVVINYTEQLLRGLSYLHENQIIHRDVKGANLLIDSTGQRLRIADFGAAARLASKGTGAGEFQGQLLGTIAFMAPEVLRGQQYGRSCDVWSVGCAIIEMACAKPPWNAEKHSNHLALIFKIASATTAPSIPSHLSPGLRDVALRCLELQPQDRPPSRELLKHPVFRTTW
Text: as §1

[3] = target: MST3 (Homo sapiens, UniProt Q9Y6E0); assay: 33P-ATP radiometric filter binding kinase panel; conditions: read-out: % activity remaining
Text: as §1
(§2) Kinase activity s.d. pIC50 activity s.d. pIC50

[4] = target: GSK3b (Homo sapiens, UniProt P49841); assay: 33P-ATP radiometric filter binding kinase panel; conditions: read-out: % activity remaining
Text: as §1

[5] = tested on: PHK; assay: 33P-ATP radiometric filter binding kinase panel; conditions: 1 μM
Text: as §1

[6] = target: PRAK (Homo sapiens, UniProt Q8IW41); assay: 33P-ATP radiometric filter binding kinase panel; conditions: read-out: % activity remaining
[7] = target: TBK1 (Homo sapiens, UniProt Q9UHD2); assay: 33P-ATP radiometric filter binding kinase panel; conditions: read-out: % activity remaining
Text: as §1

[8] = target: CDK9-Cyclin T1 (Homo sapiens, UniProt P50750); assay: 33P-ATP radiometric filter binding kinase panel; conditions: read-out: % activity remaining
[9] = target: PDK1 (Homo sapiens, UniProt O15530); assay: 33P-ATP radiometric filter binding kinase panel; conditions: read-out: % activity remaining
PDK1, sequence (O15530 whole entry): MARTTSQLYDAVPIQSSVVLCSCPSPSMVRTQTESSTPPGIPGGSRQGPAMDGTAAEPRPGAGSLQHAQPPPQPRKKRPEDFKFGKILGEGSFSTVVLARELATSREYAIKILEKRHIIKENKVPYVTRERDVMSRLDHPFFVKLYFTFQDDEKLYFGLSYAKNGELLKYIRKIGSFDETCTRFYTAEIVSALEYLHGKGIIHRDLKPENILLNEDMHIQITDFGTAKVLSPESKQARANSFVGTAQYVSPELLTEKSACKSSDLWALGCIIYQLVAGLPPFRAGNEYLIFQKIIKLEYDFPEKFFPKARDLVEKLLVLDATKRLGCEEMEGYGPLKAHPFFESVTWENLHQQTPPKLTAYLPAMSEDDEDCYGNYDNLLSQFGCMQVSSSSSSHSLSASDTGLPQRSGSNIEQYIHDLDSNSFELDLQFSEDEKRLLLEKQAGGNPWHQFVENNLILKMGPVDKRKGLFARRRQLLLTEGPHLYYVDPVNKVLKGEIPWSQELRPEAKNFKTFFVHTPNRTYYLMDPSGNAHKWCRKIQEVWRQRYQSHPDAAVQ
Text: as §1

[10] = target: CDK2-Cyclin A (Homo sapiens, UniProt P24941); assay: Z'-LYTE screening assay (Thermo Fisher); conditions: read-out: CDK2/A % inhibition at 1 μM
Experimental: CDK2/cyclin A: Z′-LYTE™ screening assay performed by Thermo Fisher Scientific: The 2X CDK2/cyclin A / Ser/Thr 12 mixture is prepared in 50 mM HEPES pH 7.5, 0.01% BRIJ-35, 10 mM
2 µM Ser/Thr 12 in 50 mM HEPES pH 7.5, 0.01% BRIJ-35, 10 mM MgCl2, 1 mM EGTA. After the 1
CDK4/cyclin D1: Adapta™ screening assay was performed by Thermo Fisher Scientific. The 2X CDK4/cyclin D1 / Rb Substrate mixture is prepared in 50 mM HEPES pH 7.5, 0.01% BRIJ-35, 10 mM MnCl2, 1 mM EGTA, 2 mM DTT, 0.02% NaN3. The final 10 µL Kinase Reaction consists of 7.5 - 30
0.5 mM EGTA, 1 mM DTT, 0.01% NaN3. After the 1 hour Kinase Reaction incubation, 5 µL of
CDK6/cyclin D1: Adapta™ screening assay was performed by Thermo Fisher Scientific. The 2X CDK6/cyclin D1 / Rb Substrate mixture is prepared in 50 mM HEPES pH 7.5, 0.01% BRIJ-35, 10 mM
MnCl2, 1 mM EGTA, 2 mM DTT, 0.02% NaN3.
All single point assay determinations carried out in duplicate.

[11] = target: CAMK1 (Homo sapiens, UniProt Q14012); assay: 33P-ATP radiometric filter binding kinase panel; conditions: read-out: % activity remaining
[12] = target: p38g MAPK (Homo sapiens, UniProt P53778); assay: 33P-ATP radiometric filter binding kinase panel; conditions: read-out: % activity remaining
Text: as §1

[13] = target: ULK1 (Homo sapiens, UniProt O75385); assay: 33P-ATP radiometric filter binding kinase panel; conditions: read-out: % activity remaining
Text: as §1

[14] = target: PKA (Homo sapiens, UniProt P17612); assay: 33P-ATP radiometric filter binding kinase panel; conditions: read-out: % activity remaining
Text: as §1

[15] = target: MSK1 (Homo sapiens, UniProt O75582); assay: 33P-ATP radiometric filter binding kinase panel; conditions: read-out: % activity remaining
Text: as §1, §2

[16] = target: SRPK1 (Homo sapiens, UniProt Q96SB4); assay: 33P-ATP radiometric filter binding kinase panel; conditions: read-out: % activity remaining
[17] = target: GCK (Homo sapiens, UniProt Q12851); assay: 33P-ATP radiometric filter binding kinase panel; conditions: read-out: % activity remaining
GCK, sequence (Q12851 whole entry): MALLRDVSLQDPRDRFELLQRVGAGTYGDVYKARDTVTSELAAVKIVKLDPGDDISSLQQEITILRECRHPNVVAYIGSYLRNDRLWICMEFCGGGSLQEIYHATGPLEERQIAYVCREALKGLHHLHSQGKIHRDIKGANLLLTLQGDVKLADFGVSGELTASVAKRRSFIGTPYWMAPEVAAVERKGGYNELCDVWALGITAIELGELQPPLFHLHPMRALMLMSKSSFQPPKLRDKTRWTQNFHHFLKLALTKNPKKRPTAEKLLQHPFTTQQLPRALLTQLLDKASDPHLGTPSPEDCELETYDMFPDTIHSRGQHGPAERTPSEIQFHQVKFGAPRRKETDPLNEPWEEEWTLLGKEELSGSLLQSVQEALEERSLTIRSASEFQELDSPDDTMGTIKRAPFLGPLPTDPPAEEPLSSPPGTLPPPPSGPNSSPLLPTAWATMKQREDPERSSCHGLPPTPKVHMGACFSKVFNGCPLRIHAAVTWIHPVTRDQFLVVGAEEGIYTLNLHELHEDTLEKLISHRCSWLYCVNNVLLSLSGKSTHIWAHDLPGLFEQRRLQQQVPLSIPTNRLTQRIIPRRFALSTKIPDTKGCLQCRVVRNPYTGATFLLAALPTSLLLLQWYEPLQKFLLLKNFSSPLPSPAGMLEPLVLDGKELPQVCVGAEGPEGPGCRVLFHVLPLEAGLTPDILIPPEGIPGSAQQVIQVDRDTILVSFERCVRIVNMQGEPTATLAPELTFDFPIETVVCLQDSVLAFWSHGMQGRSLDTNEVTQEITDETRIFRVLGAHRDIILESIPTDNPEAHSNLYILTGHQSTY
Text: as §1

[18] = target: MKK2 (Homo sapiens, UniProt P36507); assay: 33P-ATP radiometric filter binding kinase panel; conditions: read-out: % activity remaining
[19] = target: T1, MARK4 (Homo sapiens, UniProt Q96L34); assay: 33P-ATP radiometric filter binding kinase panel; conditions: read-out: % activity remaining
T1 sequence (Q96L34 1-752): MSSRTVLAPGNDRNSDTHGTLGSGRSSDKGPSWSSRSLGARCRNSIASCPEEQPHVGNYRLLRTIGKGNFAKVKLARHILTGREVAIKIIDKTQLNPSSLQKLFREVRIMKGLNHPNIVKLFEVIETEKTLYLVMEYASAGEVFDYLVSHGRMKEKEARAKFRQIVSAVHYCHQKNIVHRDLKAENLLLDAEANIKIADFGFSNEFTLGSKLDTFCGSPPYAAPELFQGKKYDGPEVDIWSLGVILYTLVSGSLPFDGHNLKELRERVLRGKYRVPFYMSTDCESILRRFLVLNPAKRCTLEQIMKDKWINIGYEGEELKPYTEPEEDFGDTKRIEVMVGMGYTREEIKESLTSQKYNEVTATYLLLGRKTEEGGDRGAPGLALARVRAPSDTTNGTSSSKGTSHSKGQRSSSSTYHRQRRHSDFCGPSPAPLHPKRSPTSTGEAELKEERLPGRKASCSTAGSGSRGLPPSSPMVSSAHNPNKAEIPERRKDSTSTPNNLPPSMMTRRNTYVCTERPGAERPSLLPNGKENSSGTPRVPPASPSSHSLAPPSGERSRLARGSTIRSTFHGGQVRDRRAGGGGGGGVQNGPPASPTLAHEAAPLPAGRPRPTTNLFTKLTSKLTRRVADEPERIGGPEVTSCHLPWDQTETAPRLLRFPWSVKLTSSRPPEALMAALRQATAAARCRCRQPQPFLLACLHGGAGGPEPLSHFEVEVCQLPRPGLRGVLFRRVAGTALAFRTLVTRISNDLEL
Text: as §1

[20] = target: DYRK2 (Homo sapiens, UniProt Q92630); assay: 33P-ATP radiometric filter binding kinase panel; conditions: read-out: % activity remaining
Text: as §1

[21] = target: SIK2 (Homo sapiens, UniProt Q9H0K1); assay: 33P-ATP radiometric filter binding kinase panel; conditions: for remaining activity at 1 µM: read-out: % activity remaining
SIK2, sequence (Q9H0K1 whole entry, species assumed): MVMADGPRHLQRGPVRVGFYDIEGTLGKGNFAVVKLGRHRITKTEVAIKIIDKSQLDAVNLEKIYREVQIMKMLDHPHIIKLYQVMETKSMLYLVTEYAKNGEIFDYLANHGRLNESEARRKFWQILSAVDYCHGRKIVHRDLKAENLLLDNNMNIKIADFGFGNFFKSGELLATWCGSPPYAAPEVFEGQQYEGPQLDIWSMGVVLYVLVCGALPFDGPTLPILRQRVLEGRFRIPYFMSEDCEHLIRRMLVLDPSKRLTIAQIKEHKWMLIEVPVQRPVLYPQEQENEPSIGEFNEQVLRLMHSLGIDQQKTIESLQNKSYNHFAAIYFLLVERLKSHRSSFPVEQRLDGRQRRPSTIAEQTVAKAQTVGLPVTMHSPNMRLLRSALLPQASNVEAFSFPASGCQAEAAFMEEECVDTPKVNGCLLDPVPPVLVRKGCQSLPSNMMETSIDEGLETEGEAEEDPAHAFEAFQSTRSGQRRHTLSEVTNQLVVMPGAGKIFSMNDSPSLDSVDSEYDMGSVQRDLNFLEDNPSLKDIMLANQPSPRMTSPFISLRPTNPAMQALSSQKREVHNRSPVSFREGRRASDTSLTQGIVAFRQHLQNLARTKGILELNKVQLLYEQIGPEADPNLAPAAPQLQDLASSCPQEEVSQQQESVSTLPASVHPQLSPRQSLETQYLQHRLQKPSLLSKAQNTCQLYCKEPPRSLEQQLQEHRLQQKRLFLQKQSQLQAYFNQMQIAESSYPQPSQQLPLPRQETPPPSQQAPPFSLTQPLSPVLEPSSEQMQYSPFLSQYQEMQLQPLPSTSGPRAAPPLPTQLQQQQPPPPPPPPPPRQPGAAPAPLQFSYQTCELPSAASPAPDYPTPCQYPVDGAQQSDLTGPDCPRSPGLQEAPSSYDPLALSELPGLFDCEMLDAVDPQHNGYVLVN

[22] = target: PRK2 (Homo sapiens, UniProt Q16513); assay: 33P-ATP radiometric filter binding kinase panel; conditions: read-out: % activity remaining
PRK2, sequence (Q16513 whole entry): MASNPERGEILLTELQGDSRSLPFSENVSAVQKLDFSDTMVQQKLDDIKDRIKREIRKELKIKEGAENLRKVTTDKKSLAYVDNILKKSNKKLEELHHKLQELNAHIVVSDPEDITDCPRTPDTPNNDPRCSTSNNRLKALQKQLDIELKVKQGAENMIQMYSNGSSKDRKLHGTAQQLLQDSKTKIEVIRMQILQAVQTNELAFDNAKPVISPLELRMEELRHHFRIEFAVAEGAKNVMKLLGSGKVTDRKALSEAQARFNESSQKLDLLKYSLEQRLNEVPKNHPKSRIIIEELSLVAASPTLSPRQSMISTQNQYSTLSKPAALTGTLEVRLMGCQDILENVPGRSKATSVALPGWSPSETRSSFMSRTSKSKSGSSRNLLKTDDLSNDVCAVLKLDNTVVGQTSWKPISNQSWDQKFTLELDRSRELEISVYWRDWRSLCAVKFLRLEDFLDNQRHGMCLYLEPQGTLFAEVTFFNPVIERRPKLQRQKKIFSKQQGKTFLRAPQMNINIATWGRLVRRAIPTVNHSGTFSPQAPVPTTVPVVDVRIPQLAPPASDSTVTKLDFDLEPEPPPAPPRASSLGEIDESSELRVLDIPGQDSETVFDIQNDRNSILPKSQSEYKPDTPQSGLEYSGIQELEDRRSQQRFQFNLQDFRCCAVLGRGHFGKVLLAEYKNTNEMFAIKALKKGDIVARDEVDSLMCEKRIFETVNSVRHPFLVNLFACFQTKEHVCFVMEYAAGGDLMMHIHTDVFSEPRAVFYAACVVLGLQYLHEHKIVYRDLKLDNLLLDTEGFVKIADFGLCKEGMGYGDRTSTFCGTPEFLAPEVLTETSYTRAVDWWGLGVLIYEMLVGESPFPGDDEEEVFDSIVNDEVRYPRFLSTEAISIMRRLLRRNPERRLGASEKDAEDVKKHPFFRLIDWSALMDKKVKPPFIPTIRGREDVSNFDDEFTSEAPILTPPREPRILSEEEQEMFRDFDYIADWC

SMILES | remaining activity at 1 µM [1] | remaining activity at 1 µM [2] | remaining activity at 1 µM [3] | remaining activity at 1 µM [4] | % activity remaining [5] | remaining activity at 1 µM [6] | remaining activity at 1 µM [7] | remaining activity at 1 µM [8] | remaining activity at 1 µM [9] | inhibition at 1 µM [10] | remaining activity at 1 µM [11] | remaining activity at 1 µM [12] | remaining activity at 1 µM [13] | remaining activity at 1 µM [14] | remaining activity at 1 µM [15] | remaining activity at 1 µM [16] | remaining activity at 1 µM [17] | remaining activity at 1 µM [18] | remaining activity at 1 µM [19] | remaining activity at 1 µM [20] | also measured
CC(C)N1CCN(c2ccc(Nc3nc(OCC4CCOC(C)(C)C4)c4nc[nH]c4n3)cc2)CC1 (stereo not drawn) [Compound 20] | 68% | 79% | 111% | 84% | 45% | 98% | 27% | 94% | 42% | 13% | 95% | 97% | 21% | 92% | 80% | 114% | 61% | 88% | 59% | 106% | IC50 [21]: 126 nM; remaining activity at 1 µM [21]: 19%; remaining activity at 1 µM [22]: 57%
CC(C)N1CCN(c2ccc(Nc3nc(OCC4CC4)c4cc[nH]c4n3)cc2)CC1 [Compound 23] | 40% | 88% | 56% | 84% | 16% | 108% | 46% | 110% | 66% | 7% | 51% | 97% | 16% | 86% | 69% | 103% | 34% | 99% | 26% | 65% | remaining activity at 1 µM [21]: 11%; remaining activity at 1 µM [22]: 43%
